Reference: ChEMBL document CHEMBL5214948, “Boronic Acid: A Novel Pharmacophore Targeting Src Homology 2 (SH2) Domain of STAT3” (J Med Chem, 2022)
pIC50: −log10 of the molar value.

Key:
AGS = test: Antiproliferative activity against human AGS cells assessed as reduction in cell viability incubated for 72 hrs by CCK-8 assay; type: functional, cell-based
MGC-803 = test: Antiproliferative activity against human MGC-803 cells assessed as reduction in cell viability measured after 72 hrs by CCK-8 assay; type: functional, cell-based; conditions: MGC-803, 72 h

pIC50 (AGS): 5.76 | pIC50 (MGC-803): 5.50
Compound: C[C@H](C(=O)N(Cc1ccc(C2CCCCC2)cc1)c1ccc(B(O)O)cc1)N(C)S(=O)(=O)c1c(F)c(F)c(F)c(F)c1F
